# Marks after values point to notes of the source that are not given here.
# How the values were obtained:
# [1] = system: male Swiss mice; test: spontaneous locomotor activity (Opto-Varimex apparatus); assay type: in vivo; details: for Locomotor Total activity: ambulatory locomotor activity; for Locomotor Activity Total / Locomotor Activity ambulatory: 4 mg/kg, decrement relative to vehicle values
# Procedure: (§1) In all in vivo tests male Swiss mice of 28-30 g were used. The animals were injected i.p. with vehicle, or a solution of the drug, or fraction, 20 min before the assay. The assays were performed in mice i.p. injected with an amount of each fraction equivalent to that obtained from 1 g of dry Valeriana wallichii powder (see Table 3), 20 min before the test. In the case of the remaining aqueous solution (see Figure 2) it was injected at the maximum tolerated dose which was equivalent to that obtained from only 12 mg of dry Valeriana wallichii powder. This low dosage explains the absence of activity recorded in Table 4.
# (§2) The following tests were used: spontaneous ambulatory activity counts in an Opto-Varimex apparatus that optically detects and measures locomotor activity; the Hole-board, a well-known test to assay for the sedative behavior (6); and the horizontal wire test to detect myorelaxation as described in detail in the literature (7).
# (§3) Mean ±SEM of locomotor activity registered during 5 min session in an Opto-Varimex apparatus and performance of mice in the holeboard test. Wire test was performed after two trials and was registered the number of animals grasped the wire for 3 seconds. Vehicle or 6-methylapigenin were ip administered 20 min before tests. No significant differences were observed using the Student's t test at p>0.05. Table 9 - Anxiolytic effect of 6-methylapigenin measured in the plus-maze test
# [2] = system: BDZ-bs; test: GABA-shift of [3H]-FNZ displacement curves; assay type: binding; details: for GABA-shift: [3H]-FNZ binding to cortical brain membranes in the presence or absence of 100 µM GABA, n= 3
# [3] = system: male Swiss mice; test: horizontal wire test (myorelaxation); assay type: in vivo
# Procedure: as §1, §2, §3
# [4] = system: mice; test: sodium thiopental-induced sleeping time; assay type: in vivo
# Procedure: The effect of the active components in fraction H of Table 3 (ACN 50%, 23-27) and that of the aqueous remaining solution (Table 3) were tested in mice by i.p. administration. The doses were 2 mg per mouse for fraction H and 5 mg per mouse for the aqueous remaining solution fraction B. A small amount of conventional anesthetic (30 mg/kg of thiopental sodium - Biochemie, GmbH, Kundl, Austria) was used to induce a slight sleeping condition in the mice which were monitored to detect any possible enhancement of the sleeping condition by the previous injection of the novel compounds.
# Median (interquartile range) of sleeping time of mice given a sodium thiopental i.p. administration (30 mg/kg) 20 min after an i.p. injection of vehicle or 6-methylapigenin. The sleeping time was measured as the time spent between disappearance and reappearance of righting reflex. Table 8 - Effect in different behavioral tests of 6-methylapigenin (sedation tests)
# [5] = system: male Swiss mice; test: Hole-board test (sedation); assay type: in vivo; details: for Hole-board test N° of Head- dips / Hole-board test N° of rearings / Hole-board test Time head dipping: mice
# [6] = system: BDZ-bs (benzodiazepine binding site in GABAA brain receptor); test: BDZ-bs binding assay ([3H]-FNZ binding to cerebral cortical membranes); design: species or system rat
# Procedure: In vitro binding assays were carried out with various receptors as well as in vivo tests for sedative activity on the various fractions A-K recovered in Example 1 using the known procedures described in detail in the literature for the following receptors: BDZ-bs (benzodiazepine binding site in GABAA brain receptor) (1); 5-hydroxytriptamine-type 1A (5HT1A) (2); 5HT2 (3); AMPA glutamatergic (4); adenosine 1 (5) . In vivo sedation activity was measured by the Hole-board test (6).
# The presence of BDZ-bs ligands in the fractions obtained at the end of the preparative fractionation scheme described in Figure 2 was checked by the BDZ-bs binding assay as described in Example 2.
# No BDZ-bs ligands were found in the eluates obtained with 20 %, 30 % and 80 % ACN, but they were present in those obtained with 40 % and 50 % ACN. The BDZ-bs ligands distribution obtained is shown in Figure 3 in which the percentage of binding inhibition of [^3H]-FNZ to rat cerebral cortical membranes (averages of duplicated measurements), is shown for 0.05 mL aliquots of the indicated fractions. (Note: Fractions 1-5, 6-10 and 28-32 were collected in bulk; 40 % and 50 % eluates were collected as separate 100 mL fractions. The arrows inside the graph indicate the pools made). […]
# [7] = system: mice; test: elevated plus-maze test (anxiolysis); assay type: in vivo; details: for % open arm entries / % time spent in open arms / arm entries: mice, mean ±SEM
# Description: Anti-anxiety as discussed in the present application is based on the fear that mice have for open spaces i.e. the elevated plus-maze assay.
# [8] = 10 mg/kg ip 20 min before test, 5 min session, mean ±SEM
# [9] = 10 mg/kg ip 20 min before test, mean ±SEM
# [10] = 0.3 mg/kg ip 20 min before test
# [11] = mice, 1 mg/kg i.p. 20 min before sodium thiopental 30mg/kg i.p. (Table 20)
# [12] = mice, 4 mg/kg i.p. 20 min before sodium thiopental 30 mg/kg i.p. (Table 10)
# [13] = mice, 9 mg/kg i.p. 20 min before sodium thiopental 30 mg/kg i.p. (Table 10)
# [14] = 4 mg/kg, decrement relative to vehicle values
# [15] = mice, hesperidin 2 mg/kg i.p. 20 min before sodium thiopental 30mg/kg i.p. (Table 20)
smiles,measurement,setting,value
"Cc1c(O)cc2oc(-c3ccc(O)cc3)cc(=O)c2c1O (single isomer, unassigned) [6-methylapigenin]",Locomotor Total activity,"[1]; 0.3 mg/kg ip 20 min before test, 5 min session, mean ±SEM",410±36
same,Locomotor Total activity,"[1]; 1 mg/kg ip 20 min before test, 5 min session, mean ±SEM",463±64
same,Ambulatory locomotor activity,[1]; [8],395±43
same,Total Locomotor Activity,[1]; [8],552±55
same,GABA-shift,[2],1.6-2.0
same,behaviour at the BDZ-bs from GABA-shift,[2]; presence or absence of 100 µM GABA,behaves as an agonist
same,Wire,"[3]; 10 mg/kg ip, number of animals that grasped the wire for 3 seconds",5/5
same,Sleeping time Median,"[4]; mice, 6-methylapigenin 1mg/kg (Table 18)",0 min
same,Sleeping time Median,"[4]; mice, 6-methylapigenin 1 mg/kg i.p. 20 min before sodium thiopental 30 mg/kg i.p. (Table 12)",0 min
same,Sleeping time (min) median values,"[4]; mice, i.p., 1 mg/kg, 20 min before sodium thiopental 30 mg/kg i.p. (Table 7)",0 min
same,effect on sleeping time,"[4]; up to 1 mg/kg, mice receiving a sub-hypnotic dose of thiopental",does not affect the sleeping time
same,Hole-board test N° of Head- dips,[5]; [9],7±0.5
same,Hole-board test N° of rearings,[5]; [9],28±3
same,Hole-board test Time head dipping,[5]; [9],10±1
same,sedative effects,[5]; up to 10 mg/kg in mice,does not have sedative effects
same,Scatchard analysis of saturation curves: type of interaction,"[6]; [3H] FNZ saturation curves, decline in apparent affinity without changes in Bmax",competitive interaction
same,Ki,"[6]; n= 5 (ligand 1), n= 3 (ligand 2)",500 ± 170 nM
same,anxiolytic properties in the plus-maze assay,[7]; dose of 1 mg/kg in mice,clear anxiolytic properties
same,% open arm entries,[7]; [10],48±4%
same,% time spent in open arms,[7]; [10],42±4%
same,arm entries,[7]; [10],17±2
same,% open arm entries,[7]; 1 mg/kg ip 20 min before test,60±6 %
same,% time spent in open arms,[7]; 1 mg/kg ip 20 min before test,58±5 %
same,arm entries,[7]; 1 mg/kg ip 20 min before test,14±2
"O=c1cc(-c2ccc(O)cc2)oc2cc(O)cc(O)c12 [Apigenin, reference compound]",Sleeping time Median,[4]; [11],0 min
same,Sleeping time Median (min),"[4]; mice, 1 mg/kg i.p. 20 min before sodium thiopental 30mg/kg i.p. (Table 20), listed as apigenin",do not produce any sleeping time
"O=c1cc(-c2ccccc2)oc2cc(O)cc(O)c12 [Chrysin, reference compound]",Sleeping time Median,[4]; [11],0 min
"COc1ccc([C@@H]2CC(=O)c3c(O)cc(O[C@@H]4O[C@H](CO[C@@H]5O[C@@H](C)[C@H](O)[C@@H](O)[C@H]5O)[C@@H](O)[C@H](O)[C@H]4O)cc3O2)cc1O [Citrus hesperidin, hesperidin, reference compound]",Locomotor Activity Total,[1],-31 percentage
same,Locomotor Activity ambulatory,[1],-30 percentage
same,Wire,[3]; 4 mg/kg,0 percentage
same,activity relative to the natural isomer from valeriana,"[4]; estimated from Table 10, sleeping time in mice",approximately 60%
same,Sleeping time Median (s),[4]; [12],660* s
same,Sleeping time Median (s),[4]; [13],1440** s
same,Hole-board test N° of Head- dips,[5]; [14],-40 percentage
same,Hole-board test N° of rearings,[5]; [14],-22 percentage
same,Hole-board test Time head dipping,[5]; [14],-44 percentage
COc1ccc([C@@H]2CC(=O)c3c(O)cc(O[C@@H]4O[C@H](CO[C@@H]5O[C@@H](C)[C@H](O)[C@@H](O)[C@H]5O)[C@@H](O)[C@H](O)[C@H]4O)cc3O2)cc1O [Hesperidin],Sleeping time Median,"[4]; mice, 4 mg/kg (Table 13)",20 min
same,Sleeping time Median,[4]; [15],3.5 min
same,Sleeping time Median (min),[4]; [15],3.5* min
"COc1ccc(-c2cc(=O)c3c(O)cc(O[C@@H]4O[C@H](CO[C@@H]5O[C@@H](C)[C@H](O)[C@@H](O)[C@H]5O)[C@@H](O)[C@H](O)[C@H]4O)cc3o2)cc1 [Linarin, 7-[[6-O-(6-deoxy-α-L-mannopyranosyl)-β-D-glucopyranosyl]oxy]-5-hydroxy-2-(4-methoxyphenyl)-4H-benzopyran-4-one]",dose at which hypnotic activity is evident,[4]; estimated from Table 16,7 mg/kg
same,Sleeping time Median,"[4]; mice, 4 mg/kg i.p. 20 min before sodium thiopental 30 mg/kg i.p. (Table 16)",0 min
same,Sleeping time Median (min),"[4]; mice, 7 mg/kg i.p. 20 min before sodium thiopental 30 mg/kg i.p. (Table 16)",30** min
same,Sleeping time Median (min),"[4]; mice, 14 mg/kg i.p. 20 min before sodium thiopental 30 mg/kg i.p. (Table 16)",30** min
same,Sleeping time Median,"[4]; mice, linarin 4 mg/kg i.p. 20 min before sodium thiopental 30 mg/kg i.p. (Table 17)",0 min
"CC1=C2[C@H](/C=C(\C)C(=O)O)CC[C@@H](C)[C@H]2CC1 [Valerenic acid, reference compound]",Sleeping time Median,"[4]; mice, valerenic acid 5 mg/kg (Table 18)",0 min
same,Sleeping time Median,"[4]; mice, valerenic acid 5 mg/kg i.p. 20 min before sodium thiopental 30 mg/kg i.p. (Table 17)",0 min
same,Sleeping time Median,"[4]; mice, valerenic acid 15mg/kg i.p. 20 min before sodium thiopental 30 mg/kg i.p. (Table 17)",0 min
"COc1ccc([C@@H]2CC(=O)c3c(O)cc(O[C@@H]4O[C@H](CO[C@@H]5O[C@@H](C)[C@H](O)[C@@H](O)[C@H]5O)[C@@H](O)[C@H](O)[C@H]4O)cc3O2)cc1O [Valeriana hesperidin, Hesperetin 7-rhamnoglucoside; 4H-1-Benzopyran-4-one, 7-[[6-O-(6-deoxy-alpha-L-mannopyranosyl)-beta-D-glucopyranosyl]oxy]-2,3-dihydro-5-hydroxy-2-(3-hydroxy-4-methoxyphenyl)-, (S)-]",Locomotor Activity Total,[1],-55** percentage
same,Locomotor Activity ambulatory,[1],-58** percentage
same,Wire,[3]; 4 mg/kg,0 percentage
same,Sleeping time Median,"[4]; mice, 1 mg/kg i.p. 20 min before sodium thiopental 30 mg/kg i.p. (Table 10)",0.583 min
same,Sleeping time Median (s),"[4]; mice, 2 mg/kg i.p. 20 min before sodium thiopental 30 mg/kg i.p. (Table 10)",197* s
same,Sleeping time Median (s),[4]; [12],1290** s
same,Sleeping time Median (s),[4]; [13],1800** s
same,Sleeping time Median (s),"[4]; mice, hesperidin 2 mg/kg i.p. 20 min before sodium thiopental 30 mg/kg i.p. (Table 12)",179* s
same,Sleeping time Median (s),"[4]; mice, i.p., Dose 3 (unit not given), 20 min before sodium thiopental 30 mg/kg i.p.",500** s
same,Hole-board test N° of Head- dips,[5]; [14],-74** percentage
same,Hole-board test N° of rearings,[5]; [14],-58** percentage
same,Hole-board test Time head dipping,[5]; [14],-81## percentage
"CN1C(=O)CN=C(c2ccccc2)c2cc(Cl)ccc21 [diazepam, reference compound]",GABA-shift,[2],2.00 ± 0.10

# Source: patent publication EP1503771B1, “SEDATIVE MATERIALS AND TREATMENTS” (University of Strathclyde, priority 2002, dated 2003)
